How the values were obtained:
Assay in all cases: Weeding effect in post-emergence stage
Type in all cases: in vivo
Details in all cases: fresh weight control rate level
[1] = tested on: Echinochloa crusgalli
Method in brief: (§1)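 Seeds are sown in soil-filled pots under 0.5-2 cm soil and grown 2 weeks in greenhouse. Plants at 2-3 leaves are sprayed with compound (acetone, Tween 80, 1.5 liter/ha methyl oleate EC, water) at 7.5 to 500 g/ha. Damage is rated 3 weeks later, averaging three repeats.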

[2] = tested on: Digitaria sanguinalis
Method in brief: as §1

[3] = tested on: Eleusine indica
Method in brief: as §1

[4] = tested on: Abutilon theophrasti
Method in brief: as §1

[5] = tested on: Alopecurus japonicus
Method in brief: as §1

[6] = tested on: Setaria viridis
Method in brief: as §1

Structure (SMILES)	Weeding effect in post-emergence stage, Echinochloa crusgalli (level) ([1]; Dose 15 g/ha)	Weeding effect in post-emergence stage, Digitaria sanguinalis (level) ([2]; Dose 15 g/ha)	Weeding effect in post-emergence stage, Eleusine indica (level) ([3]; Dose 15 g/ha)	Weeding effect in post-emergence stage, Abutilon theophrasti (level) ([4]; Dose 15 g/ha)	Weeding effect in post-emergence stage, Alopecurus japonicus (level) ([5]; Dose 15 g/ha)	Weeding effect in post-emergence stage, Setaria viridis (level) ([6]; Dose 15 g/ha)	other results
COC(=O)[C@@H](C)O/N=C/c1cc(-n2c(=O)cc(C(F)(F)F)n(C)c2=S)c(F)cc1C(F)(F)F [395(R)]							Weeding effect in post-emergence stage, Echinochloa crusgalli (level) ([1]; Dose 60 g/ha): 5 (Level 5: growth control rate is above 85%); Weeding effect in post-emergence stage, Digitaria sanguinalis (level) ([2]; Dose 60 g/ha): 5 (Level 5: growth control rate is above 85%); Weeding effect in post-emergence stage, Eleusine indica (level) ([3]; Dose 60 g/ha): 5 (Level 5: growth control rate is above 85%); Weeding effect in post-emergence stage, Abutilon theophrasti (level) ([4]; Dose 60 g/ha): 5 (Level 5: growth control rate is above 85%); Weeding effect in post-emergence stage, Alopecurus japonicus (level) ([5]; Dose 60 g/ha): 5 (Level 5: growth control rate is above 85%); Weeding effect in post-emergence stage, Setaria viridis (level) ([6]; Dose 60 g/ha): 5 (Level 5: growth control rate is above 85%)
COC(=O)[C@@H](C)O/N=C/c1cc(-n2c(=O)cc(C(F)(F)F)n(C)c2=S)c(F)cc1C#N [396(R)]							Weeding effect in post-emergence stage, Echinochloa crusgalli (level) ([1]; Dose 60 g/ha): 5 (Level 5: growth control rate is above 85%); Weeding effect in post-emergence stage, Digitaria sanguinalis (level) ([2]; Dose 60 g/ha): 5 (Level 5: growth control rate is above 85%); Weeding effect in post-emergence stage, Eleusine indica (level) ([3]; Dose 60 g/ha): 5 (Level 5: growth control rate is above 85%); Weeding effect in post-emergence stage, Abutilon theophrasti (level) ([4]; Dose 60 g/ha): 5 (Level 5: growth control rate is above 85%); Weeding effect in post-emergence stage, Alopecurus japonicus (level) ([5]; Dose 60 g/ha): 5 (Level 5: growth control rate is above 85%); Weeding effect in post-emergence stage, Setaria viridis (level) ([6]; Dose 60 g/ha): 5 (Level 5: growth control rate is above 85%)
CCCSC(=O)[C@@H](C)O/N=C/c1cc(-n2c(=O)cc(C(F)(F)F)n(C)c2=O)c(F)cc1Cl [399(R)]	5 (Level 5: growth control rate is above 85%)	5 (Level 5: growth control rate is above 85%)	5 (Level 5: growth control rate is above 85%)	5 (Level 5: growth control rate is above 85%)	5 (Level 5: growth control rate is above 85%)	5 (Level 5: growth control rate is above 85%)	
CC(C)SC(=O)[C@@H](C)O/N=C/c1cc(-n2c(=O)cc(C(F)(F)F)n(C)c2=O)c(F)cc1Cl [400(R)]	5 (Level 5: growth control rate is above 85%)	5 (Level 5: growth control rate is above 85%)	5 (Level 5: growth control rate is above 85%)	5 (Level 5: growth control rate is above 85%)	5 (Level 5: growth control rate is above 85%)	5 (Level 5: growth control rate is above 85%)	
COC(=O)CSC(=O)[C@@H](C)O/N=C/c1cc(-n2c(=O)cc(C(F)(F)F)n(C)c2=O)c(F)cc1Cl [406(R)]	5 (Level 5: growth control rate is above 85%)	5 (Level 5: growth control rate is above 85%)	5 (Level 5: growth control rate is above 85%)	5 (Level 5: growth control rate is above 85%)	5 (Level 5: growth control rate is above 85%)	5 (Level 5: growth control rate is above 85%)	
C[C@@H](O/N=C/c1cc(-n2c(=O)cc(C(F)(F)F)n(C)c2=O)c(F)cc1Cl)C(=O)SCc1ccccc1 [409(R)]							Weeding effect in post-emergence stage, Echinochloa crusgalli (level) ([1]; Dose 30 g/ha): 5 (Level 5: growth control rate is above 85%); Weeding effect in post-emergence stage, Digitaria sanguinalis (level) ([2]; Dose 30 g/ha): 5 (Level 5: growth control rate is above 85%); Weeding effect in post-emergence stage, Eleusine indica (level) ([3]; Dose 30 g/ha): 5 (Level 5: growth control rate is above 85%); Weeding effect in post-emergence stage, Abutilon theophrasti (level) ([4]; Dose 30 g/ha): 5 (Level 5: growth control rate is above 85%); Weeding effect in post-emergence stage, Alopecurus japonicus (level) ([5]; Dose 30 g/ha): 5 (Level 5: growth control rate is above 85%); Weeding effect in post-emergence stage, Setaria viridis (level) ([6]; Dose 30 g/ha): 5 (Level 5: growth control rate is above 85%)
COC(=O)CCNC(=O)[C@@H](C)O/N=C/c1cc(-n2c(=O)cc(C(F)(F)F)n(C)c2=O)c(F)cc1Cl [416(R)]	5 (Level 5: growth control rate is above 85%)	5 (Level 5: growth control rate is above 85%)	5 (Level 5: growth control rate is above 85%)	5 (Level 5: growth control rate is above 85%)	5 (Level 5: growth control rate is above 85%)	5 (Level 5: growth control rate is above 85%)	
CON(C)C(=O)[C@@H](C)O/N=C/c1cc(-n2c(=O)cc(C(F)(F)F)n(C)c2=O)c(F)cc1Cl [419(R)]	5 (Level 5: growth control rate is above 85%)	5 (Level 5: growth control rate is above 85%)	5 (Level 5: growth control rate is above 85%)	5 (Level 5: growth control rate is above 85%)	5 (Level 5: growth control rate is above 85%)	5 (Level 5: growth control rate is above 85%)	
Cc1cc(C)n(C(=O)[C@@H](C)O/N=C/c2cc(-n3c(=O)cc(C(F)(F)F)n(C)c3=O)c(F)cc2Cl)n1 [424(R)]							Weeding effect in post-emergence stage, Echinochloa crusgalli (level) ([1]; Dose 30 g/ha): 5 (Level 5: growth control rate is above 85%); Weeding effect in post-emergence stage, Digitaria sanguinalis (level) ([2]; Dose 30 g/ha): 5 (Level 5: growth control rate is above 85%); Weeding effect in post-emergence stage, Eleusine indica (level) ([3]; Dose 30 g/ha): 5 (Level 5: growth control rate is above 85%); Weeding effect in post-emergence stage, Abutilon theophrasti (level) ([4]; Dose 30 g/ha): 5 (Level 5: growth control rate is above 85%); Weeding effect in post-emergence stage, Alopecurus japonicus (level) ([5]; Dose 30 g/ha): 5 (Level 5: growth control rate is above 85%); Weeding effect in post-emergence stage, Setaria viridis (level) ([6]; Dose 30 g/ha): 5 (Level 5: growth control rate is above 85%)
CCn1c(C(F)(F)F)cc(=O)n(-c2cc(/C=N/O[C@H](C)C(=O)OC)c(Cl)cc2F)c1=O [426(R)]							Weeding effect in post-emergence stage, Echinochloa crusgalli (level) ([1]; Dose 250 g/ha): 5 (Level 5: growth control rate is above 85%); Weeding effect in post-emergence stage, Digitaria sanguinalis (level) ([2]; Dose 250 g/ha): 5 (Level 5: growth control rate is above 85%); Weeding effect in post-emergence stage, Eleusine indica (level) ([3]; Dose 250 g/ha): 5 (Level 5: growth control rate is above 85%); Weeding effect in post-emergence stage, Abutilon theophrasti (level) ([4]; Dose 250 g/ha): 5 (Level 5: growth control rate is above 85%); Weeding effect in post-emergence stage, Alopecurus japonicus (level) ([5]; Dose 250 g/ha): 5 (Level 5: growth control rate is above 85%); Weeding effect in post-emergence stage, Setaria viridis (level) ([6]; Dose 250 g/ha): 5 (Level 5: growth control rate is above 85%)
C[C@@H](O/N=C/c1cc(-n2c(=O)n(C)c(=S)n(C)c2=O)c(F)cc1Cl)C(=O)O [438(R)]							Weeding effect in post-emergence stage, Echinochloa crusgalli (level) ([1]; Dose 30 g/ha): 5 (Level 5: growth control rate is above 85%); Weeding effect in post-emergence stage, Digitaria sanguinalis (level) ([2]; Dose 30 g/ha): 5 (Level 5: growth control rate is above 85%); Weeding effect in post-emergence stage, Eleusine indica (level) ([3]; Dose 30 g/ha): 5 (Level 5: growth control rate is above 85%); Weeding effect in post-emergence stage, Abutilon theophrasti (level) ([4]; Dose 30 g/ha): 5 (Level 5: growth control rate is above 85%); Weeding effect in post-emergence stage, Alopecurus japonicus (level) ([5]; Dose 30 g/ha): 5 (Level 5: growth control rate is above 85%); Weeding effect in post-emergence stage, Setaria viridis (level) ([6]; Dose 30 g/ha): 5 (Level 5: growth control rate is above 85%)
C[C@@H](O/N=C/c1cc(-n2c(=O)n(C)c(=S)n(C)c2=O)c(F)cc1Cl)C(=O)OCC(F)(F)F [439(R)]							Weeding effect in post-emergence stage, Echinochloa crusgalli (level) ([1]; Dose 30 g/ha): 5 (Level 5: growth control rate is above 85%); Weeding effect in post-emergence stage, Digitaria sanguinalis (level) ([2]; Dose 30 g/ha): 5 (Level 5: growth control rate is above 85%); Weeding effect in post-emergence stage, Eleusine indica (level) ([3]; Dose 30 g/ha): 5 (Level 5: growth control rate is above 85%); Weeding effect in post-emergence stage, Abutilon theophrasti (level) ([4]; Dose 30 g/ha): 5 (Level 5: growth control rate is above 85%); Weeding effect in post-emergence stage, Alopecurus japonicus (level) ([5]; Dose 30 g/ha): 5 (Level 5: growth control rate is above 85%); Weeding effect in post-emergence stage, Setaria viridis (level) ([6]; Dose 30 g/ha): 5 (Level 5: growth control rate is above 85%)
C#CCCOC(=O)[C@@H](C)O/N=C/c1cc(-n2c(=O)cc(C(F)(F)F)n(C)c2=O)c(F)cc1Cl [442(R)]	5 (Level 5: growth control rate is above 85%)	5 (Level 5: growth control rate is above 85%)	5 (Level 5: growth control rate is above 85%)	5 (Level 5: growth control rate is above 85%)	5 (Level 5: growth control rate is above 85%)	5 (Level 5: growth control rate is above 85%)	
CC(C#N)OC(=O)[C@@H](C)O/N=C/c1cc(-n2c(=O)cc(C(F)(F)F)n(C)c2=O)c(F)cc1Cl (stereo partly drawn) [443(R)]	5 (Level 5: growth control rate is above 85%)	5 (Level 5: growth control rate is above 85%)	5 (Level 5: growth control rate is above 85%)	5 (Level 5: growth control rate is above 85%)	5 (Level 5: growth control rate is above 85%)	5 (Level 5: growth control rate is above 85%)	
CC(CC#N)OC(=O)[C@@H](C)O/N=C/c1cc(-n2c(=O)cc(C(F)(F)F)n(C)c2=O)c(F)cc1Cl (stereo partly drawn) [444(R)]	5 (Level 5: growth control rate is above 85%)	5 (Level 5: growth control rate is above 85%)	5 (Level 5: growth control rate is above 85%)	5 (Level 5: growth control rate is above 85%)	5 (Level 5: growth control rate is above 85%)	5 (Level 5: growth control rate is above 85%)	

— patent US20230111310A1, “CARBOXYLIC ACID DERIVATIVE-SUBSTITUTED IMINO ARYL COMPOUND, PREPARATION METHOD THEREFOR, HERBICIDAL COMPOSITION AND USE THEREOF” (Qingdao Kingagroot Chemical Compound Co., Ltd., priority 2020, published 2023)
